Results published in the METLIN SMRT retention time set (Domingo-Almenara et al. 2019).

Test: gradient 5% acetonitrile 3 min, to 50% in 2 min, to 85% in 15 min, held 3 min, 100 µL/min
Conditions: column: Zorbax Extend-C18 2.1 x 50 mm; eluents: water / acetonitrile, 0.1% formic acid
Outline: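 Using water and acetonitrile that each contained 0.1% formic acid, mixtures of ~100 pure standards were separated at 100 μL/min on a Zorbax Extend-C18 column (2.1 × 50 mm, 1.8 μm). The HPLC fed a quadrupole time-of-flight mass spectrometer working in positive and negative ionization mode, with dead and dwell volumes of 40 μL and 900 μL. Data were acquired over 3 months. Retention time was read from computationally picked adduct peaks after manual inspection of each.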

| SMILES | RP-LC retention time [s] |
| --- | --- |
| Cc1ccc(NC(=O)N2CC(c3nc(CCOCC4CCCC4)no3)C2)cc1C | 1060 |
| CCn1c(=O)c(C(=O)Nc2cccc(SC)c2)c(O)c2sccc21 | 1290 |
| Cc1nnc2c(=O)n(CC(=O)N3CCN(c4ccccc4)CC3)c3cccnc3n12 | 682 |
| Cc1ccc2nc3c(c(C(=O)NCC(C)C)c2c1)CCC3 | 650 |
| Cc1cc2[nH]c(C(=O)Nc3cccc(Cl)c3F)c(CN3CCOCC3)c2s1 | 768 |
| O=C(Nc1cccc(N2CCCS2(=O)=O)c1)Nc1cccs1 | 696 |
| COc1ccc(N(C(=O)Nc2ccccc2OC)C2=NCCC2)cc1Cl | 1060 |
| COC(=O)c1cc(C)nc2c1c(=O)n(Cc1cccc(F)c1)c(=O)n2C | 973 |
| Cn1cc(-c2cc3n(n2)CCC(=O)N3CCCC(=O)N2CCCCC2)c2ccccc21 | 802 |
| O=C(Nc1nccs1)C1CCN(C(=O)Cn2ccc3ccccc32)CC1 | 719 |
| O=S(=O)(c1cccn2c(SCc3c(F)cccc3Cl)nnc12)N1CCCC1 | 855 |
| N#CCN(c1ccc2c(c1)OCO2)S(=O)(=O)c1ccc2nncn2c1 | 692 |
| OC(CN1CCN(c2ccc(F)cc2)CC1)c1ccc2c(c1)OCO2 (centres undefined) | 635 |
| CC(C)(C)c1noc(-c2ccc(-n3cnc(C(=O)N4CCOCC4)c3)nc2)n1 | 793 |
| CN(C)C(=O)c1cc2c(s1)CCC(C(=O)NC1CCCCC1)C2 (centres undefined) | 748 |
| O=C(C1CCCCC1)N1CCCC(c2n[nH]c(C3CC3)n2)C1 (centres undefined) | 584 |
| Cc1c(-c2nnc(C(=O)NCCCN3CCCC3)o2)oc2c(C)cccc12 | 688 |
| Cc1ccc(N2CCC(NC(=O)Nc3ccc4c(c3)OCCO4)C2=O)cc1C (centres undefined) | 798 |
| O=C(NC1CCCCC1)c1ccc2ccnc(N3CCN(c4ccccc4)CC3)c2c1 | 851 |
| CC(C)N1C(=O)C(C)(C(=O)NCc2ccc(F)cc2)Oc2cccnc21 (centres undefined) | 984 |
| CC(=O)N1CCc2cc(N3CC(C(=O)Nc4cccc(C)c4)CC3=O)ccc21 (centres undefined) | 712 |
| COc1ccccc1NC(=O)C1CCCN(c2nc3ccccc3nc2OC)C1 (centres undefined) | 1160 |
| CC(C)CC(=O)Nc1ccc(-n2cnc(C(=O)N3CCN(C(C)C)CC3)c2)nc1 | 581 |
| COc1ccc(NC(=O)C2CCc3sc(C(=O)N4CCCC4)cc3C2)c(OC)c1 (centres undefined) | 756 |

| SMILES | RP-LC retention time [s] |
| --- | --- |
| O=C(CN1C(=O)COc2ccc(C(=O)N3CCc4ccccc43)cc21)N1CCCC1 | 760 |
| CC(C)(C)CC(=O)Nc1ccc2c(c1)N(C(=O)c1ccco1)CCC2 | 866 |
| Cc1ccc(NC(=O)N2CCN(c3nc4ccccc4nc3C(F)(F)F)CC2)cc1F | 1150 |
| O=C(c1cccs1)N1CCn2c(nnc2-c2ccccc2)C1 | 656 |
| COCc1noc([C@@H]2CN(Cc3cn(C)c4ccccc34)C[C@H]2CO)n1 | 616 |
| CC(C)n1c(C2CCN(C(=O)c3cccc(N(C)C)c3)C2)nc2ccncc21 (centres undefined) | 529 |
| CSc1ccc(C2c3[nH]c4ccccc4c3CCN2C(=O)c2ccco2)cc1 (centres undefined) | 1140 |
| O=C(Cn1nc(N2CCOCC2)c2ccccc2c1=O)Nc1ccc2c(c1)OCO2 | 733 |
| O=C1c2cccc([N+](=O)[O-])c2C(=O)N1c1nc(-c2ccccc2)cs1 | 958 |
| CCCC(=O)NC1CCN(c2ccc(C)c(C)c2)C1=O (centres undefined) | 736 |
| CCCCN1C(=O)C(CC(=O)NCC(C)C)Sc2ncccc21 (centres undefined) | 784 |
| O=C(NCC1CCCO1)C1CCN(C(=O)c2cccn2-c2cccnc2)CC1 (centres undefined) | 602 |
| Nc1nc(-c2ccccc2Cl)nn1C(=O)C1CC1 | 827 |
| CCOc1ccccc1NC(=O)Cn1c(=O)n(Cc2cccs2)c(=O)c2ncccc21 | 772 |
| O=C(CN1C(=O)NC2(CCCCC2)C1=O)Nc1ccccc1Cl | 764 |
| O=C(NCc1csc(C2CCCN(C(=O)C3CCCC3)C2)n1)C1CC1 (centres undefined) | 671 |
| CCC1CCCCN1CCCNC(=O)Cn1c(=O)c2cccn2c2ccc(F)cc21 (centres undefined) | 641 |
| O=C(c1ccncc1)N1CCC(c2noc(-c3cnccn3)n2)C1 (centres undefined) | 584 |
| Cc1ccc(NC(=O)N2C[C@@H](F)C[C@H]2C(=O)N2CCc3ccccc3C2)c(C)c1 | 817 |
| CC1(C)CC(=O)C2=C(C1)Nc1ccccc1N(CC(=O)NC1CCCC1)C2c1ccc(F)cc1 (centres undefined) | 863 |
| COc1ccc(OC)c(NC(=O)N2C[C@@H](F)C[C@H]2C(=O)N2CCCCC2)c1 | 720 |
| Cc1cccc(Sc2nccnc2N2CCCC(C(=O)NCc3cccc(Cl)c3)C2)c1 (centres undefined) | 1180 |
| Cc1ccc(CNC(=O)C2CCCN(c3cnn(C)c(=O)c3)C2)cc1 (centres undefined) | 715 |

Results, then the compound that gave them:

| RP-LC retention time [s] | SMILES |
| --- | --- |
| 1140 | CC(C)n1nnc2ccc(-c3noc(-c4ccc(F)cc4)n3)cc21 |
| 698 | CCn1cc(-c2ccncc2)cc1C(=O)NCc1ccc(Br)cc1 |
| 828 | COCCNC(=O)c1ccc(-n2nc(Sc3ccc(Cl)cc3)ccc2=O)cc1 |
| 729 | COc1ccc(-c2cc(C(N)=O)c(C)n2C)cc1 |
| 720 | Cc1c(-c2ccc(O)cc2)n(Cc2ccc(OCCN3CCCCCC3)cc2)c2ccc(O)cc12 |
| 802 | CCNC(=O)Cn1c(=O)c2cnc(-c3ccccc3)nc2n(CC)c1=O |
| 761 | Cc1ccccc1-c1noc(-c2cccn(CC(=O)NC(C)C)c2=O)n1 |
| 759 | Cc1ccc(Cc2nc(-c3ccc(-n4ccnc4)nc3)no2)cc1 |
| 850 | COc1ccc(NC(=O)Cn2cccc2-c2nnc(-c3ccccc3)o2)cc1OC |
| 1040 | COc1ccc(Cl)cc1NC(=O)CSc1nnc2c3cc(-c4ccc(C)cc4)nn3ccn12 |
| 1010 | CCS(=O)(=O)Nc1ccc(-c2noc(COc3ccc(Cl)cc3)n2)cc1 |
| 1120 | COc1ccc(CCC(=O)Nc2nc(-c3ccc(Cl)cc3)cs2)cc1 |
| 641 | CN(C)CCNc1oc(COc2ccc(Cl)cc2)nc1C#N |
| 674 | CS(=O)(=O)Nc1ccc(C2(C(=O)N3CCN(c4ccccc4)CC3)CCCCC2)cc1 |
| 917 | Cc1ccc(CN2CC(=O)N(c3cccc(Cl)c3)[C@@H]3CS(=O)(=O)C[C@@H]32)cc1 |
| 949 | Cn1cc(C2=CCN(S(=O)(=O)c3ccc(F)cc3)CC2)c2cccnc21 |
| 835 | Cc1nn(-c2ccc(Cl)cc2)c(C)c1S(=O)(=O)N1CCC(C(=O)NC2CC2)CC1 |
| 1080 | CCc1nc(-c2csc(S(=O)(=O)N3CCC(C(=O)Nc4ccc(C)cc4Cl)CC3)c2)no1 |
| 1040 | O=c1ccn(-c2cccc(F)c2)nc1-c1nc(-c2ccc(F)c(Br)c2)no1 |
| 1240 | CC(NS(=O)(=O)c1cc(-c2nc(C(C)(C)C)cs2)cs1)c1ccccc1 (centres undefined) |
| 1190 | O=S(=O)(NCc1nc(-c2ccc(-c3csc(C4CC4)n3)cc2)no1)c1ccc(Cl)cc1 |

| RP-LC retention time [s] | SMILES |
| --- | --- |
| 973 | COCCc1noc(C2Cc3ccccc3N2C(=O)NCc2ccc(C)cc2)n1 (centres undefined) |
| 860 | Cc1nn(Cc2nc(-c3ccc(NC(=O)C4CCCC4)cc3)oc2C)c(C)c1C |
| 637 | COc1ccc(-c2cn3c(CCC(=O)NCc4ccco4)csc3n2)cc1 |
| 700 | O=C(CCCS(=O)(=O)Cc1ccccc1)Nc1ccc2c(c1)OCCO2 |
| 672 | Cn1c(N)c(S(=O)(=O)Nc2ccc(Br)cc2)c(=O)n(C)c1=O |
| 1030 | COc1ccc(-c2noc(C3CCCN3C(=O)Nc3ccc(F)c(Cl)c3)n2)cc1 (centres undefined) |
| 847 | CCn1c(C)c(CCC(=O)Nc2ccccc2)c(=O)n2nc(-c3ccccc3)nc12 |
| 669 | CCOC(=O)C1=C(CN2CCN(c3ncccn3)CC2)NC(=O)NC1c1ccc(Cl)cc1 (centres undefined) |
| 762 | Cc1noc(-c2cccc(OC3CN(C(=O)CN4C(=O)CCC4=O)C3)c2)n1 |
| 954 | Cc1ccc(Cl)cc1NC(=O)C1CCN(S(C)(=O)=O)c2ccccc2O1 (centres undefined) |
| 994 | O=C(Nc1cccc(-c2nc3ccccc3o2)c1)c1ccc(F)cc1F |
| 1110 | Cc1sc(-c2cc(C(F)(F)F)on2)cc1S(=O)(=O)NCc1ccccc1 |
| 930 | Cc1cc(C)n(Cc2nc(-c3ccc(NC(=O)Cc4cccc(F)c4)cc3)oc2C)n1 |
| 902 | O=c1c(=O)n(-c2ccccc2)ccn1Cc1nc(-c2cccc(C(F)(F)F)c2)no1 |
| 1000 | CCc1nc(-c2ccc3c(c2)CCN3C(=O)COc2ccc(OC)cc2)no1 |
| 749 | CCNC(=O)c1ccc(-n2nc(C)cc2-c2ccccc2)cc1 |
| 1040 | COCCNC(=O)c1cc2occc2c(Nc2ccc(Br)c(C)c2)n1 |
| 694 | COC(=O)c1ccc(NC(=O)N(C)Cc2cc(=O)[nH]c3ccccc23)cc1 |
| 929 | O=C(Nc1ccc2c(c1)OCO2)c1cccc2c1CCN2C(=O)Nc1ccc(F)cc1 |
| 662 | CCCNC(=O)c1ccc(-c2nc3cc(NS(=O)(=O)c4cccs4)ccc3n2C)cc1 |
| 839 | CCOC(=O)c1cccc(NC2=NS(=O)(=O)c3ccccc32)c1 |
